Earlier results on one compound are cited in patent publication US8895729B2, “Process for making thienopyrimidine compounds” (Genentech, Inc., priority 2012, dated 2014).

For series [1], the system named is receptor screening assay (n=68). Particulars: GDC-0980=10 microM.
Series [2] deals with MDA-MB-361.1 breast cancer xenograft.
For series [3], the system named is MCF7-neo/HER2 cell line.
Test in series [4]: not given
The source holds these as a separate data set.

For series [5], the system named is PC3 PTEN-prostate xenograft. Particulars: mouse PC3 PTEN- prostate xenograft; 25 to 150 mg/kg qd po.
The test system of series [6] is xenograft cancer models; breast, ovarian, lung, and prostate.
Series [7] deals with MCF7.1 E545K breast xenograft. Particulars: mouse MCF7.1 E545K breast xenograft; 25 to 150 mg/kg qd po.
The conditions of series [8]: single oral dose.

In general, IC50 refers to the midpoint of a concentration-inhibition curve. As for `Cc1c(CN2CCN(C(=O)[C@H](C)O)CC2)sc2c(N3CCOCC3)nc(-c3cnc(N)nc3)nc12` [GDC-0980, (S)-1-(4-((2-(2-aminopyrimidin-5-yl)-7-methyl-4-morpholinothieno[3,2-d]pyrimidin-6-yl)methyl)piperazin-1-yl)-2-hydroxypropan-1-one], the “stability in human hepatocytes” value is recorded as “stable”. Moreover, the “responses in a receptor screening assay” value in series [1] is on record as “did not elicit significant responses”. In addition, the “minimum dose producing significant growth inhibition” value in series [2] is 1.0 mg/kg QD. Moreover, the IC50 in [3] is 320 nM. In addition, in series [4], the “stability in human microsomes” value is reported as “stable”. Further, the “efficacy in xenograft model” value in series [5] is listed as “efficacious”. In addition, in [6], the “activity in preclinical xenograft cancer models” value is “broad activity”. Also, the “efficacy in xenograft model” value in [7] was “efficacious”. Besides, in series [8], the AUC dose dependence entry is listed as “dose-proportional increases” and the Cmax dose dependence result is “dose-proportional increases”.
